Experimental findings from patent publication US10167280B2, “Substituted oxopyridine derivatives” (BAYER PHARMA AKTIENGESELLSCHAFT, priority 2014, dated 2019) are described below.

pIC50: −log10 of the molar value.

In one assay the target is human factor XIa (Homo sapiens (Human), UniProt P03951). The assay is described as follows: Measurement of FXIa inhibition (fluorogenic peptide substrate Boc-Glu(OBzl)-Ala-Arg-AMC). It is filed as biochemical. Particulars: Table A, 30 min at 22° C., fluorescence. How it is done:
The factor XIa inhibition of the substances according to the invention is determined using a biochemical test system which utilizes the reaction of a peptidic factor XIa substrate to determine the enzymatic activity of human factor XIa. Here, factor XIa cleaves from the peptic factor XIa substrate the C-terminal aminomethylcoumarin (AMC), the fluorescence of which is measured. The determinations are carried out in microtitre plates.
1 μl of the diluted substance solutions is placed into each of the wells of white microtitre plates from Greiner (384 wells). […] After […] of incubation, the enzyme reaction is started by addition of 20 μl of the factor XIa substrate Boc-Glu(OBzl)-Ala-Arg-AMC dissolved in assay buffer (10 μM in assay buffer) from Bachem, the mixture is incubated at room temperature (22° C.) for 30 min and fluorescence is then measured (excitation: 360 nm, emission: 460 nm). The measured emissions of the test batches with test substance are compared to those of control batches without test substance (only dimethyl sulphoxide instead of test substance in dimethyl sulphoxide), and IC50 values are calculated from the concentration/activity relationships.

In another assay the target is human plasma kallikrein (Homo sapiens (Human), UniProt P03952). The assay is described as follows: Determination of the plasma kallikrein activity (fluorogenic peptide substrate H-Pro-Phe-Arg-AMC). It is filed as biochemical. Particulars: Table B; plasma kallikrein inhibition, 30 min at 22° C., fluorescence. How it is done:
To determine the plasma kallikrein inhibition of the substances according to the invention, a biochemical test system is used which utilizes the reaction of a peptidic plasma kallikrein substrate to determine the enzymatic activity of human plasma kallikrein. Here, plasma kallikrein cleaves from the peptic plasma kallikrein substrate the C-terminal aminomethylcoumarin (AMC), the fluorescence of which is measured. The determinations are carried out in microtitre plates.
1 μl of the diluted substance solutions is placed into each of the wells of white microtitre plates from Greiner (384 wells). 20 μl of assay buffer (50 mM Tris/HCl pH 7.4; 100 mM sodium chloride solution; 5 mM of calcium chloride solution; 0.1% of bovine serum albumin) and 20 μl of plasma kallikrein from Kordia (0.6 nM in assay buffer) are then added successively. After 15 min of incubation, the enzyme reaction is started by addition of 20 μl of the substrate H-Pro-Phe-Arg-AMC dissolved in assay buffer (10 μM in assay buffer) from Bachem, the mixture is incubated at room temperature (22° C.) for 30 min and fluorescence is then measured (excitation: 360 nm, emission: 460 nm). The measured emissions of the test batches with test substance are compared to those of control batches without test substance (only dimethyl sulphoxide instead of test substance in dimethyl sulphoxide), and IC50 values are calculated from the concentration/activity relationships.

Broadly, the pIC50 is the IC50 on a negative log10 scale, so that one unit is a factor of ten. A high value points to a small IC50.

human factor XIa, sequence (P03951 388-625): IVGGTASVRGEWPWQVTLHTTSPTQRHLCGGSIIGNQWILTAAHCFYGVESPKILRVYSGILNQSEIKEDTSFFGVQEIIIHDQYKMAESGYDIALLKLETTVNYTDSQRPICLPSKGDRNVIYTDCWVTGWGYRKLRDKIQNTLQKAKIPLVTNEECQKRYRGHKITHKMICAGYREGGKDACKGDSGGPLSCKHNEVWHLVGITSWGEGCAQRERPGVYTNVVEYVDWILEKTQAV
human factor XIa, sequence (P03951 19-387 partner): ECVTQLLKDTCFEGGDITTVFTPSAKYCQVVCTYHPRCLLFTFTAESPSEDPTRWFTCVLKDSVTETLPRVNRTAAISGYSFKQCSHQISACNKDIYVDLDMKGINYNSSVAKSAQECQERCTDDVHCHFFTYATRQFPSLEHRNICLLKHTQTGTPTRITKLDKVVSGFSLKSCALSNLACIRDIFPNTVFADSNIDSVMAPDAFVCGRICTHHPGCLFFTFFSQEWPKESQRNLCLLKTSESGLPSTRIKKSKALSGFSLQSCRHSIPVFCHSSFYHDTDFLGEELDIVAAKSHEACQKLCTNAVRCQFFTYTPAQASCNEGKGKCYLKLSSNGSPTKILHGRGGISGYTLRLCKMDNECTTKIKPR
human plasma kallikrein, sequence (P03952 391-638): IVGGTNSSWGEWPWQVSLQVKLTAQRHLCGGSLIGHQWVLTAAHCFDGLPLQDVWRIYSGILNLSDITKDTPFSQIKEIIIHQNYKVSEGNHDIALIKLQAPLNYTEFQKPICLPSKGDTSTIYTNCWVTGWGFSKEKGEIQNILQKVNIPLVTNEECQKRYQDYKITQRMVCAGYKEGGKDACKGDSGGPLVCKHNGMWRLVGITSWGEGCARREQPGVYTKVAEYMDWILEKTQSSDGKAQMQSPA
human plasma kallikrein, sequence (P03952 20-390 partner): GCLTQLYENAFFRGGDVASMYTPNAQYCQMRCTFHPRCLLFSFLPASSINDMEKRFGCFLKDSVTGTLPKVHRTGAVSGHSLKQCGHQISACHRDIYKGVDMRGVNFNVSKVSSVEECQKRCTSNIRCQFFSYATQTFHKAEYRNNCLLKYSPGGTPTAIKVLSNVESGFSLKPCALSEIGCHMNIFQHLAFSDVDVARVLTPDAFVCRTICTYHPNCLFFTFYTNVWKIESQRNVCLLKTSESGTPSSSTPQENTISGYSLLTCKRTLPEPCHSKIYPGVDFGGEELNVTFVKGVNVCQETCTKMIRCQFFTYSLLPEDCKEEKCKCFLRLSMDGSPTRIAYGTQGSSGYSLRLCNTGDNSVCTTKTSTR

With `CCC(C(=O)Nc1ccc(C(N)=O)nc1)n1cc(OC)c(-c2cc(Cl)ccc2C#N)cc1=O` (centres unmarked) [Example 1], the pIC50 is 7.70 against human factor XIa and 7.66 at human plasma kallikrein.

In the case of `COCCC(C(=O)Nc1ccc(C(N)=O)nc1)n1cc(Cl)c(-c2cc(Cl)ccc2C#N)cc1=O` (centres unmarked) [Example 3], the pIC50 against human factor XIa was 7.54; against human plasma kallikrein it was 7.00.

Consider `N#Cc1ccc(Cl)cc1-c1cc(=O)n(C(Cc2ccccn2)C(=O)Nc2ccc(C(N)=O)nc2)cc1OC(F)F` (centres unmarked) [Example 7], for which the results for the pIC50 on human factor XIa and at human plasma kallikrein were 6.80 and 6.31, respectively.

Consider `CCC(C(=O)Nc1ccc(C(=O)NC)nc1)n1cc(OC)c(-c2cc(Cl)ccc2C#N)cc1=O` (centres unmarked) [Example 2], for which the pIC50 against human factor XIa was 7.70; at human plasma kallikrein it was 7.80.

For the compound `CNC(=O)c1ccc(NC(=O)C(Cc2ccn(C)n2)n2cc(OC)c(-c3cc(F)ccc3C#N)cc2=O)cn1` (racemic) [Example 49, 5-({2-[4-(2-Cyano-5-fluorophenyl)-5-methoxy-2-oxopyridin-1(2H)-yl]-3-(1-methyl-1H-pyrazol-3-yl)propanoyl}amino)-N-methylpyridine-2-carboxamide (racemate)], the pIC50 at human factor XIa was 6.80; on human plasma kallikrein, 6.89.

For the compound `COc1cn(C(Cc2cocn2)C(=O)Nc2ccc(C(N)=O)nc2)c(=O)cc1-c1cc(Cl)ccc1C#N` (centres unmarked) [Example 11], the pIC50 at human factor XIa was 7.32; on human plasma kallikrein it was 7.28.

As for `COc1cn(C(Cc2cc(C)no2)C(=O)Nc2ccc(C(N)=O)nc2)c(=O)cc1-c1cc(Cl)ccc1F` (centres unmarked) [Example 14], the negative-log IC50 (pIC50) against human factor XIa was 6.41; against human plasma kallikrein, 6.80.

In the case of `N#Cc1ccc(Cl)cc1-c1cc(=O)n(C(C[C@@H]2CCCCO2)C(=O)Nc2ccc(C(N)=O)nc2)cc1Cl` (some centres unmarked) [Example 4], the pIC50 was 7.80 on human factor XIa and 6.85 at human plasma kallikrein.

`CNC(=O)c1ccc(NC(=O)C(C[C@@H]2CCCCO2)n2cc(Cl)c(-c3cc(Cl)ccc3C#N)cc2=O)cn1` (some centres unmarked) [Example 5]: the figures for the negative-log IC50 (pIC50) on human factor XIa and on human plasma kallikrein were 7.92 and 6.92, respectively.

In the case of `N#Cc1ccc(Cl)cc1-c1cc(=O)n(C(Cc2cnco2)C(=O)Nc2ccc(C(N)=O)nc2)cc1OC(F)F` (centres unmarked) [Example 12], the values for the pIC50 at human factor XIa and at human plasma kallikrein were 6.68 and 6.19, respectively.

Turning to `N#Cc1ccc(Cl)cc1-c1cc(=O)n(C(Cc2cocn2)C(=O)Nc2ccc(C(N)=O)nc2)cc1Cl` (centres unmarked) [Example 10], the pIC50 against human factor XIa was 6.68; against human plasma kallikrein, 6.33.

Take `COc1cn(C(Cc2cccnc2)C(=O)Nc2ccc(C(N)=O)nc2)c(=O)cc1-c1cc(Cl)ccc1C#N` (centres unmarked) [Example 8]: the pIC50 is 7.96 on human factor XIa and 8.22 against human plasma kallikrein.

As to `N#Cc1ccc(Cl)cc1-c1cc(=O)n(C(Cc2cnco2)C(=O)Nc2ccc(C(N)=O)nc2)cc1Cl` (centres unmarked) [Example 16], the negative-log IC50 (pIC50) against human factor XIa was 7.49; on human plasma kallikrein it was 7.05.

Regarding `CNC(=O)c1ccc(NC(=O)C(Cc2ccn(C)n2)n2cc(C3CC3)c(-c3cc(Cl)ccc3C#N)cc2=O)cn1` (racemic) [Example 51, 5-({2-[4-(5-Chloro-2-cyanophenyl)-5-cyclopropyl-2-oxopyridin-1(2H)-yl]-3-(1-methyl-1H-pyrazol-3-yl)propanoyl}amino)-N-methylpyridine-2-carboxamide (racemate)], the pIC50 was 6.70 against human factor XIa and 7.10 on human plasma kallikrein.

For `COc1cn(C(Cc2ccccn2)C(=O)Nc2ccc(C(N)=O)nc2)c(=O)cc1-c1cc(Cl)ccc1F` (centres unmarked) [Example 13], the negative logarithm of the IC50 (pIC50) against human factor XIa was 6.66; against human plasma kallikrein it was 6.60.

`CNC(=O)c1ccc(NC(=O)C(CCOC)n2cc(Cl)c(-c3cc(Cl)ccc3C#N)cc2=O)cn1` (centres unmarked) [Example 15]: the negative logarithm of the IC50 (pIC50) is 7.64 against human factor XIa and 7.28 against human plasma kallikrein.
